Laboratory results reported in US20060183794A1, “Drug composition containing nf-kb inhibitor” (priority 2002, published 2006).

Assays:
[1] = tested on: ICAM-1, VCAM-1, and E-selectin; assay: Western blot of adhesion molecule expression in TNF-α-stimulated HUVECs; type: cell-based, human; details: HUVECs pretreated with DHMEQ for 2 hours, 10 ng/ml TNF-α
Procedure: The protein concentration of this supernatant was determined by a liquid of Coomassie Brilliant Blue (Bio-Rad), and concentration was adjusted. Subsequently, 3×SDS loading buffer (150 mM Tris-HCl: pH 6.8, 30% glycerol, 3% SDS (Kanto Kagaku), 0.03 mg/ml bromophenol blue, 150 μl/ml 2-mercaptoethanol (Kanto Kagaku)) was added at a volume equal to half the volume of the lysis buffer that had been added, followed by boiling for 5 min. Using this as a sample, electrophoresis was performed in a 12.5% polyacrylamide gel. After the electrophoresis, the proteins in the gel were transferred to a PVDF membrane (Amersham) and blocked with TBS buffer (20 mM Tris-HCl: pH7.6, 137 mM NaCl) containing 5% skim milk (Snow Brand). Subsequently, the proteins were reacted with the PVDF membrane using antibodies to ICAM-1 (Santa Cruz), VCAM-1 (Santa Cruz), and E-selectin (Santa Cruz), followed by reactions with secondary antibodies (the secondary antibodies to ICAM-1, VCAM-1, and E-selectin (Amersham and Santa Cruz)) suitable to each primary antibody. Further, color was developed by the ECL method, followed by exposure to a film.

[2] = tested on: adhesion of leukocytes and HL-60 cells to HUVECs; assay: Adhesion of leukocytes and HL-60 cells to TNF-α-stimulated HUVECs; type: cell-based, human; details: DHMEQ 3 μg/ml; TNF-α stimulation 3, 6, 9 hours
Procedure: HUVECs were plated 24 well plates and confluently cultured. The culture medium was composed of 9.8 g/l medium 199 (provided from Nissui), 1.8 g/l NaHCO3 (Wako), 10 ml/l 1M Hepes buffer (Sigma), 30 mg/l ECGS (Becton Dickinson), 6 ml/l heparin sodium injection (Takeda Pharmaceutical), and 10% heat-inactivated FBS (JRH). Subsequently, the following experiments were conducted. […] In this experiment, mononuclear cells isolated by the specific gravity centrifugation method were used as leukocytes.
After stimulation with TNF-α, the wells were washed twice with HBSS+ (provided from Nissui) and the culture medium was changed to 500 μl of a fresh medium composed of 9.8 g/l medium 199 (provided from Nissui), 1.8 g/l NaHCO3 (Wako), 10 ml/l 1M Hepes buffer (Sigma), 30 mg/l ECGS (Becton Dickinson), 6 ml/l heparin sodium injection (Takeda Pharmaceutical), and 10% heat-inactivated FBS (JRH). Leukocytes and HL-60 cells were placed in wells at 2×10^5 cells/well and 7×10^4 cells/well, respectively. […] That state was photographed and the number of cells adhered to HUVECs was counted.

p65 subunit of NF-κB = molecular target: T1, p65 subunit of NF-κB (Homo sapiens, UniProt Q04206); assay: Confocal microscopy of p65 distribution in ATL cell lines; type: cell-based; details: MT-1 and TL-Om1; 10 μg/ml DHM2EQ, 24 hours
T1 construct: endogenous in cells; host or cells: ATL cell lines MT-1 and TL-Om1
T1 sequence (Q04206 whole entry): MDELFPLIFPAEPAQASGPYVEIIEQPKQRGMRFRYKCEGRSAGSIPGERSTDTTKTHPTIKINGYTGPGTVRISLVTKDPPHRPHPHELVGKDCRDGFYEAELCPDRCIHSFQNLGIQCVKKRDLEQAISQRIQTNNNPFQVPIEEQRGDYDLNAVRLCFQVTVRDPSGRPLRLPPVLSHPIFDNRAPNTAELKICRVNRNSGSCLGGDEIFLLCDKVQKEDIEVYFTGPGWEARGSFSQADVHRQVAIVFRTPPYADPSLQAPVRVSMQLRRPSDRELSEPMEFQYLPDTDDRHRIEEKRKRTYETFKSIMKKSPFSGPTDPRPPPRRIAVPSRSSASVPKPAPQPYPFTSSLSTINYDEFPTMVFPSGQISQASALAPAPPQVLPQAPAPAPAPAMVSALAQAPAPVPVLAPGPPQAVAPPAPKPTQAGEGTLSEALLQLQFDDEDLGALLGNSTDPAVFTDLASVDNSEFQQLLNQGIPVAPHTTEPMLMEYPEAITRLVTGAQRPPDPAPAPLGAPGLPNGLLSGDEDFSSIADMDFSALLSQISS
Procedure: It is thought that DHM2EQ inhibits nuclear translocation of the p65 subunit of NF-κB. The ATL cell lines (MT-1 and TL-Om1) were treated with 10 μg/ml DHM2EQ for 24 hours and distribution of p65 was examined with a confocal microscope, using fluorescence-labeled anti-p65 antibody. The cell lines not treated with DHM2EQ were also examined in the same manner. In the figure, “−” and “+” indicate the results of DHM2EQ untreatment and DHM2EQ treatment, respectively.

[3] = tested on: ATL cells of ATL patients; assay: MTT assay, ATL cells from peripheral blood of ATL patients; type: cell-based, human; details: three cases; 10 μg/ml, 24 hours
Procedure: Mononuclear cells were isolated from peripheral blood cells of ATL patients and ATL cells were isolated. DHM2EQ was added to the isolated ATL cells of three cases at a final concentration of 10 μg/ml and the cells were incubated for 24 hours. The proliferation-inhibitory effect was examined by the MTT assay. Using the cells to which solvent DMSO had been added in equal volume as controls, the proliferation-inhibitory effect was evaluated by the ratio of the MMT values of DHM2EQ-treated cells to those of DHM2EQ-untreated cells, i.e., (MTT values of DHM2EQ-treated cells/MTT values of DHM2EQ-untreated cells).

K562 = assay: Hoechst staining apoptosis assay, control cell line K562; type: cell-based; details: 10 μg/ml, 72 hours
Procedure: DHM2EQ was added to the ATL cell lines (MT-1 and TL-Om1) and a control cell line (K562) at a final concentration of 10 μg/ml, followed by incubation for 72 hours. Subsequently, apoptosis was examined by observing nuclear […] or fragmentation on Hoechst staining with a fluorescence microscope. Cells to which the solvent DMSO had been added in equal volume were also examined in the same manner.

[4] = tested on: ATL cell line MT-2 in SCID mice; assay: Survival of SCID mice intraperitoneally inoculated with ATL cell line MT-2; type: in vivo; details: for mice survived: p<0.05
Procedure: First, five-week-old male SCID mice (CB17-scid/scid; SLC Japan, Inc (Shizuoka, Japan)) were treated for 3 to 5 days with 1 mg of IL-2 receptor antibody (TM-β1; J. Immunol. 147: 2222-2228, 1991), and intraperitoneally inoculated with the ATL cell line MT-2 (3 to 4×10^7 cells). Subsequently, the mice were intraperitoneally given 4 mg/kg bw or 12 mg/kg bw DHMEQ dissolved in 5% carboxymethyl cellulose (CMC; Sigma) solution three times a week for one month, and their survival probability and status were observed. […] The survival curve was calculated by the Kaplan-Mayer method, and the statistically significant difference was determined by the Cox-Mantel test.

[5] = tested on: human pancreatic cancer cell line PK-2; assay: Human pancreatic cancer PK-2 subcutaneous tumor in SCID mice; type: in vivo; details: PK-2 s.c., 12 mg/kg i.p.
Procedure: The in vivo suppressive effect of DHMEQ on proliferation of tumor cells in human pancreatic cancer. The human pancreatic cancer cell line PK-2 (2×10^6 cells) was inoculated subcutaneously in the right back of SCID mice (n=7) and then 12 mg/kg DHMEQ was injected intraperitoneally (i.p.) at a dose of 200 μl every other day for five days. Subsequently, the major axis and minor axis of the tumors were measured every seven days. The tumor volume was calculated as follows: (major axis)×(minor axis)^2×0.5.

NF-κB [6] = molecular target: T2, NF-κB (Homo sapiens, UniProt P19838+Q04206); assay: Gel shift assay (EMSA) of NF-κB activation in stimulated HUVECs; type: cell-based; parameters: endogenous in cells; host or cells: MCF-7 cells treated with TNF-α; details: DHMEQ 3 μg/ml, 2 h pretreatment
T2 sequence (Q04206 whole entry): as above
T2 sequence (P19838 1-433 limits assumed): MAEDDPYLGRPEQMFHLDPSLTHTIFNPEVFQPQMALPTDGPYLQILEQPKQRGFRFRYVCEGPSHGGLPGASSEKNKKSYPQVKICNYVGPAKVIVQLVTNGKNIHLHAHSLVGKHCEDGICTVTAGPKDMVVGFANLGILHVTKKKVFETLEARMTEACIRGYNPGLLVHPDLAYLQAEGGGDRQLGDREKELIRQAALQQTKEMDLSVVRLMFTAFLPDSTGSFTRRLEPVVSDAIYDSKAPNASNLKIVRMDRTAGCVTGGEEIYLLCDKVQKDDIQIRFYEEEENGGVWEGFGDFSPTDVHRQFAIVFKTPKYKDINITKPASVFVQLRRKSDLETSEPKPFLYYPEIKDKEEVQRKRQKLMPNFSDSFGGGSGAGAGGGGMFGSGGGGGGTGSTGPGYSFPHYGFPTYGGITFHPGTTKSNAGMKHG
From the text: HUVECs were pretreated with DHMEQ as follows. […] Nuclear extract was thus obtained.

NF-κB [7] = molecular target: T2, NF-κB; assay: 6 kB-Luc reporter assay of NF-κB transcription in multiple myeloma cell lines; type: cell-based; parameters: endogenous in cells; host or cells: MM cell lines KMM1, RPMI8226, U266; details: 5 μg/ml, 12-hour treatment; compared with non-treated cells
Procedure: Next, the inhibitory effect on activation of NF-κB was investigated using the reporter assay. First, 6 kB-Luc plasmid was introduced by transfection into the MM cell lines, KMM1, RPMI8226, and U266 (transfected on a scale of a 2×10^5 cells/transfection using DMRIE-C (Invitrogen)) After 12 hours, 12-hour treatment of cells with 5 μg/ml DHM2EQ was started and the suppressive effect of DHMEQ on the transcription by NF-κB was examined. […] The suppressive effect of DHMEQ on transcription by NF-κB was therefore indicated.

SMILES: O=C(NC1=CC(=O)C2OC2C1O)c1ccccc1O (centres unmarked) [DHMEQ, 5,6-epoxy-4-hydroxy-3-salicyloylamino-2-cyclohexenone]
- expression of ICAM-1, VCAM-1 and E-selectin [1]: markedly suppressed
- adhesion of leukocytes and HL-60 cells to HUVECs [2]: markedly suppressed
- nuclear translocation of p65 (p65 subunit of NF-κB): inhibited
- proliferation of ATL cells obtained from patients (MTT) [3]: exhibits an inhibitory effect
- apoptosis (Hoechst staining) (K562): apoptosis was not observed
- mice survived ([4]; 4 mg/kg i.p. three times a week for one month, about 200 days, control all 5 dead): 4 out of 6
- mice survived ([4]; 12 mg/kg i.p. three times a week for one month, about 30 days, control 4 out of 5 dead): 5 out of 6
- toxicity, anomalies in body weights etc. ([4]; SCID mice, up to three volumes of 4 mg/kg): toxicity was not noted
- proliferation of tumor cells (tumor volume) [5]: significantly suppresses
- activation of NF-κB in HUVECs caused by TNF-α, IL-1β, and LPS (NF-κB [6]): completely suppressed
- transcription by NF-κB suppressed by (reporter assay) (NF-κB [7]): about 50%
